Reference: US20240041042A1, “1-(PYRIDYL)-5-AZINYLPYRAZOLE DERIVATIVES, AND THEIR USE FOR CONTROL OF UNDESIRED PLANT GROWTH” (Bayer Aktiengesellschaft, priority 2020, published 2024)
Read-outs that look alike come from different tables or passages of the source.

What was measured:
Type in all cases: in vivo
[1] = test system: Digitaria sanguinalis (DIGSA); experiment: Post-emergence herbicidal action against DIGSA; settings: visual rating about 3 weeks after treatment
In short: (§1)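 Rates were 320 g/ha or below, applied as aqueous WP/EC spray with 0.5% additive (600 l/ha) onto one-leaf-stage plants. About 3 weeks later in the greenhouse, damage was scored visually against untreated plants on a 0–100% scale, where 100% means plants died.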

[2] = test system: Pharbitis purpurea (PHBPU); experiment: Pre-emergence herbicidal action against PHBPU; settings: dosage 320 g/ha
In short: (§2)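 Dosages of 320 g/ha or less; pre-emergence; WP or EC in aqueous spray, 0.5% additive, 600 l/ha; greenhouse; visual % effect after ~3 wk relative to control pots.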

[3] = test system: Polygonum convolvulus (POLCO); experiment: Pre-emergence herbicidal action against POLCO
In short: as §2

Lolium rigidum (LOLRI) [4] = experiment: Pre-emergence herbicidal action against LOLRI; settings: dosage 320 g/ha
In short: as §2

[5] = test system: Digitaria sanguinalis (DIGSA); experiment: Pre-emergence herbicidal action against DIGSA
In short: as §2

[6] = test system: Amaranthus retroflexus (AMARE); experiment: Post-emergence herbicidal action against AMARE
In short: as §1

Zea mays (ZEAMX) [7] = settings: pre-emergence, 80 g/ha, crop plant compatibility, in comparison to untreated controls
In short: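 Crop injury rated visually in percent against untreated plants roughly 3 weeks after treatment (0% no effect, 100% plants dead). Compounds, as WP or EC with 0.5% additive in 600 l/ha water, were applied to the covering soil right after sowing; greenhouse growth. Suffixes a, b, c denote different dosages.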

[8] = test system: Echinochloa crus-galli (ECHCG); experiment: Pre-emergence herbicidal action against ECHCG; settings: dosage 320 g/ha
In short: as §2

[9] = test system: Verconica persica (VERPE); experiment: Pre-emergence herbicidal action against VERPE; settings: dosage 320 g/ha
In short: as §2

[10] = test system: Polygonum convolvulus (POLCO); experiment: Post-emergence herbicidal action against POLCO
In short: as §1

Setaria viridis (SETVI) [11] = experiment: Pre-emergence herbicidal action against SETVI
In short: as §2

Setaria viridis (SETVI) [12] = experiment: Post-emergence herbicidal action against SETVI
In short: as §1

[13] = test system: Pharbitis purpurea (PHBPU); experiment: Post-emergence herbicidal action against PHBPU
In short: as §1

[14] = test system: Amaranthus retroflexus (AMARE); experiment: Pre-emergence herbicidal action against AMARE; settings: visual scoring after about 3 weeks vs untreated controls
In short: as §2

[15] = test system: Alopecurus myosuroides (ALOMY); experiment: Pre-emergence herbicidal action against ALOMY; settings: scored visually after about 3 weeks, 100% = plants have died
In short: as §2

Lolium rigidum (LOLRI) [16] = experiment: Post-emergence herbicidal action against LOLRI
In short: as §1

Oryza sativa (ORYSA) = settings: crop plant compatibility
In short: (§3)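 Visual rating (% effect vs. untreated plants; 100% = plant death) made about 3 weeks after treatment. Plants had been sprayed at one-leaf stage, 2–3 weeks post-sowing, with aqueous WP/EC preparations containing 0.5% additive, 600 l/ha water volume; a, b, c mark dose levels.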

[17] = test system: Alopecurus myosuroides (ALOMY); experiment: Post-emergence herbicidal action against ALOMY; settings: visual rating about 3 weeks after treatment vs untreated controls (100% = plants have died, 0% = like control plants)
In short: as §1

[18] = test system: Matricaria inodora (MATIN); experiment: Pre-emergence herbicidal action against MATIN; settings: dosage 320 g/ha
In short: as §2

Viola tricolor (VIOTR) [19] = experiment: Post-emergence herbicidal action against VIOTR
In short: as §1

[20] = test system: Verconica persica (VERPE); experiment: Post-emergence herbicidal action against VERPE
In short: as §1

Avena fatua (AVEFA) [21] = experiment: Pre-emergence herbicidal action against AVEFA; settings: visual scoring after about 3 weeks vs untreated controls
In short: as §2

[22] = test system: Echinochloa crus-galli (ECHCG); experiment: Post-emergence herbicidal action against ECHCG
In short: as §1

Zea mays (ZEAMX) [23] = settings: 20 g/ha, ZEAMX, effect in comparison to untreated controls
In short: as §3

Viola tricolor (VIOTR) [24] = experiment: Pre-emergence herbicidal action against VIOTR
In short: as §2

[25] = test system: Abutilon theophrasti (ABUTH); experiment: Post-emergence herbicidal action against ABUTH; settings: 80 g/ha, visual rating about 3 weeks after treatment vs untreated controls (100% = plants have died, 0% = like control plants)
In short: as §1

Avena fatua (AVEFA) [26] = experiment: Post-emergence herbicidal action against AVEFA; settings: 80 g/ha, visual rating about 3 weeks after treatment
In short: as §1

[27] = 80 g/ha, visual scoring after about 3 weeks vs untreated controls
[28] = 80 g/ha, visual rating about 3 weeks after treatment vs untreated controls (100% = plants have died, 0% = like control plants)
[29] = 80 g/ha, effect in comparison to untreated controls

SMILES	Post-emergence action against DIGSA in % ([1]; 80 g/ha) [%]	Pre-emergence action against PHBPU in % [2] [%]	Pre-emergence action against POLCO in % ([3]; dosage 320 g/ha) [%]	Pre-emergence action against LOLRI in % (Lolium rigidum (LOLRI) [4]) [%]	Pre-emergence action against DIGSA in % [5, 27] [%]	Pre-emergence action against DIGSA in % ([5]; dosage 320 g/ha) [%]	Post-emergence action against AMARE in % [6, 28] [%]	Pre-emergence action against ZEAMX in % (Zea mays (ZEAMX) [7]) [%]	Pre-emergence action against ECHCG in % [8] [%]	Pre-emergence action against VERPE in % [9] [%]	Post-emergence action against POLCO in % ([10]; dosage 80 g/ha) [%]	Pre-emergence action against SETVI in % (Setaria viridis (SETVI) [11]; dosage 320 g/ha) [%]	Post-emergence action against PHBPU in % ([13]; dosage 80 g/ha) [%]	Pre-emergence action against AMARE in % ([14]; 80 g/ha) [%]	Pre-emergence action against AMARE in % ([14]; 320 g/ha) [%]	Pre-emergence action against ALOMY ([15]; 80 g/ha) [%]	Pre-emergence action against ALOMY ([15]; 320 g/ha) [%]	Post-emergence action against ORYSA in % (Oryza sativa (ORYSA); [29]) [%]	Pre-emergence action against MATIN in % [18] [%]	Post-emergence action against VIOTR in % (Viola tricolor (VIOTR) [19]; 80 g/ha) [%]	also measured
COC(=O)CCOC(=O)COc1nn(-c2ccccn2)c(-c2ccc(F)nc2)c1Br [Example I-247]	80	80	90	100	100	100	80	20	100	90	80	100	90	80	100	80	100	10	90	80	Post-emergence action against DIGSA in % ([1]; 320 g/ha): 80%; Post-emergence action against AMARE in % ([6]; 320 g/ha, visual rating about 3 weeks after treatment): 80%; Post-emergence action against POLCO in % ([10]; dosage 320 g/ha): 80%; Post-emergence action against SETVI in % (Setaria viridis (SETVI) [12]; dosage 320 g/ha): 80%; Post-emergence action against PHBPU in % ([13]; dosage 320 g/ha): 90%; Post-emergence action against LOLRI in % (Lolium rigidum (LOLRI) [16]; dosage 320 g/ha): 80%; Post-emergence action against ALOMY in % ([17]; 320 g/ha): 80%; Post-emergence action against VIOTR in % (Viola tricolor (VIOTR) [19]; 320 g/ha): 80%; Post-emergence action against VERPE in % ([20]; 320 g/ha, VERPE): 80%; Post-emergence action against VERPE in % ([20]; dosage 80 g/ha): 80%; Pre-emergence action against AVEFA in % (Avena fatua (AVEFA) [21]; 320 g/ha): 80%; Post-emergence action against ECHCG in % ([22]; dosage 80 g/ha): 80%; Post-emergence action against ECHCG in % ([22]; dosage 320 g/ha): 80%
COC(=O)[C@@H](C)Oc1nn(-c2ccccn2)c(-c2ccnc(F)c2)c1Cl [Example I-19]	80	90	100	100	100	100	80	0	100	100	90	100	90	100	100	100	100	0	90	90	Pre-emergence action against POLCO in % ([3]; dosage 80 g/ha): 90%; Pre-emergence action against SETVI in % (Setaria viridis (SETVI) [11]; dosage 80 g/ha): 100%; Post-emergence action against SETVI in % (Setaria viridis (SETVI) [12]; dosage 80 g/ha): 80%; Post-emergence action against LOLRI in % (Lolium rigidum (LOLRI) [16]; dosage 80 g/ha): 80%; Post-emergence action against ORYSA in % (Oryza sativa (ORYSA); 20 g/ha, effect vs untreated controls): 0%; Post-emergence action against ZEAMX in % (crop plant compatibility) (Zea mays (ZEAMX) [23]): 0%; Post-emergence action against ALOMY in % ([17]; 80 g/ha): 100%; Pre-emergence action against VIOTR in % (Viola tricolor (VIOTR) [24]; 320 g/ha, Viola tricolor): 100%; Pre-emergence action against VIOTR in % (Viola tricolor (VIOTR) [24]; dosage 80 g/ha): 100%; Pre-emergence action against AVEFA in % (Avena fatua (AVEFA) [21]; 80 g/ha): 80%; Pre-emergence action against AVEFA in % (Avena fatua (AVEFA) [21]; 320 g/ha): 100%; Post-emergence action against ABUTH in % [25]: 80%; Post-emergence action against AVEFA in % (Avena fatua (AVEFA) [26]): 90%
